Measured values: US20210121432A1, “Bambuterol for the Treatment of Alzheimer's Disease” (priority 2018, published 2021)

Experiments:
[1] = system: hyperphosphorylated Tau (AT100) in MAP-2 positive neurons; assay: Plate A: phospho Tau (AT100) evaluation in MAP-2 hippocampal neurons injured with Aβ1-42; format: cell-based, rat; conditions: Aβ 20 μM 24 h, FIG. 2D
Procedure: (§1) Bambuterol, referred to as MR36621 in the experiments was tested on rat primary hippocampal neurons that were injured with Aβ. Donezpil was used as a reference test compound.
(§2) Rat hippocampal neurons were cultured as described by Callizot et al., Operational dissection of β-amyloid cytopathic effects of cultured neurons, J. Neurosci. Res. 2013 May; 91(5): 706-16. Pregnant female rats of 17 days gestation (Rats Wistar; Janvier Labs France) were euthanized using a deep anesthesia with a CO2 chamber followed by a cervical dislocation. Fetuses were removed from the uterus and immediately placed in ice-cold L15 Leibovitz medium with a 2% penicillin (10,000 U/ml) and streptomycin (10 mg/ml) solution (PS) and 1% bovine serum albumin (BSA).
(§3) Hippocampal neurons were treated for 20 min at 37° C. with a trypsin-EDTA solution at a final concentration of 0.05% trypsin and 0.02% EDTA. The dissociation was stopped by adding Dulbecco's modified Eagle's medium (DMEM) with 4.5 g/liter of glucose, containing DNAse I grade II (final concentration 0.5 mg/ml) and 10% fetal calf serum (FCS). Cells were mechanically dissociated by three forced passages through the tip of a 10-ml pipette and then centrifuged at 515×g for 10 min at 4° C.
The supernatant was discarded, and the pellet was resuspended in a defined culture medium consisting of Neurobasal medium with a 2% solution of B27 supplement, 2 mmol/liter of L-glutamine, 2% of PS solution, and 10 ng/ml of brain-derived neurotrophic factor (BDNF). Viable cells were counted in a Neubauer cytometer, using the trypan blue exclusion test. Cells were seeded at a density of 20,000 per well in 96-well plates precoated with poly-L-lysine and cultured at 37° C. in an air (95%)-CO2 (5%) incubator. The medium was changed every 2 days. […]
(§4) Bambuterol was placed in a culture medium and preincubated for 1 hour before Aβ application. An Aβ1-42 preparation was added to a final concentration of 20 or 2.5 μM (=2 μM or 0.25 μM of AβO, evaluated by automatic WB) diluted in control medium in presence of the compound. […]

[2] = system: rat primary hippocampal neurons injured with Aβ; assay: Plate A: survival and neurite network of MAP-2 hippocampal neurons injured with Aβ1-42; format: cell-based; conditions: for Neurite length per neuron (total neurite network normalized by the number of neurons): FIG. 2C
Procedure: as §1, §2, §3
The supernatant was discarded, and the pellet was resuspended in a defined culture medium consisting of Neurobasal medium with a 2% solution of B27 supplement, 2 mmol/liter of L-glutamine, 2% of PS solution, and 10 ng/ml of brain-derived neurotrophic factor (BDNF). Viable cells were counted in a Neubauer cytometer, using the trypan blue exclusion test. Cells were seeded at a density of 20,000 per well in 96-well plates precoated with poly-L-lysine and cultured at 37° C. in an air (95%)-CO2 (5%) incubator. The medium was changed every 2 days.
The hippocampal neurons were exposed with A solutions after 17 days of culture. An Aβ1-42 preparation was done following the procedure described by Callizot et al., 2013. Aβ1-42 is a forty-two amino acid form of amyloid β in cerebrospinal fluid and is recognized by persons of ordinary skill in the art as a biomarker for Alzheimer's disease.
Aβ1-42 peptide was dissolved in the defined culture medium mentioned above, at an initial concentration of 40 μM. This solution was gently agitated for 3 days at 37° C. in the dark and immediately used after being properly diluted in culture medium to the concentrations used (20 μM (plate 13) or 2.5 μM (plate 14) corresponding to 2 μM or 0.25 μM of oligomers (AβO) respectively).
Bambuterol was placed in a culture medium and preincubated for 1 hour before Aβ application. An Aβ1-42 preparation was added to a final concentration of 20 or 2.5 μM (=2 μM or 0.25 μM of AβO, evaluated by automatic WB) diluted in control medium in presence of the compound.
Table I identifies two plates that exposed two concentrations of Aβ to different concentrations of bambuterol. The bambuterol was preincubated 1 hour before the application of Aβ.
Twenty-four hours after intoxication, the hippocampal neurons were fixed by a cold solution of ethanol (95%) and acetic acid (5%) for 5 min at −20° C. After permeabilization with 0.1% of saponin, cells were incubated for 2 hours with: • (a) chicken polyclonal antibody anti microtubule-associated-protein 2 (MAP-2), diluted at 1/1000 in PBS containing 1% fetal calf serum and 0.1% of saponin (this antibody allows the specific staining of neuronal cell bodies and neurites; and allow the study of neuronal cell death and neurite network); and • (b) mouse monoclonal antibody anti-phospho Tau (AT100) at dilution of 1/400 in PBS containing 1% fetal calf serum and 0.1% of saponin.
For each condition, multiple pictures (representative of the whole well area) per well were taken using ImageXpress (Molecular Devices) at 20× magnification. All images were taken with the same acquisition parameters. Analyses were performed automatically by using Custom Module Editor® (Molecular Devices). […]

[3] = system: rat primary hippocampal neurons injured with Aβ; assay: Plate B: synapses evaluation (PSD95/SYN) in hippocampal neurons injured with Aβ1-42; format: cell-based; conditions: Aβ 2.5 μM 24 h, FIG. 3
Procedure: as §1
Rat hippocampal neurons were cultured as described by Callizot et al., Operational dissection of β-amyloid cytopathic effects of cultured neurons, J. Neurosci. Res. 2013 May; 91(5): 706-16. Pregnant female rats of 17 days gestation (Rats Wistar; Janvier Labs France) were euthanized using a deep anesthesia with a CO2 chamber followed by a cervical dislocation. […]
The supernatant was discarded, and the pellet was resuspended in a defined culture medium consisting of Neurobasal medium with a 2% solution of B27 supplement, 2 mmol/liter of L-glutamine, 2% of PS solution, and 10 ng/ml of brain-derived neurotrophic factor (BDNF). Viable cells were counted in a Neubauer cytometer, using the trypan blue exclusion test. […]
as §4
The following endpoints were assessed: • Total number of synapses (overlapping between PSD95/SYN).

COc1cc2c(cc1OC)C(=O)C(CC1CCN(Cc3ccccc3)CC1)C2 (stereo not drawn) [Donepezil]
Hyperphosphorylation of Tau (AT100) ([1]; Donepezil 1 μM): significantly mitigate this hyperphosphorylation | Neuronal survival (number of MAP-2 positive neurons) ([2]; Aβ 20 μM 24 h, Donepezil 1 μM, FIG. 2A): significantly protect neurons from death | Total neurite network (MAP-2 positive neurons) ([2]; Aβ 20 μM 24 h, Donepezil 1 μM, FIG. 2B): significantly preserved almost the whole neurite network | Neurite length per neuron (total neurite network normalized by the number of neurons) ([2]; Aβ 20 μM 24 h, Donepezil 1 μM): longer | Number of synapses (overlapping PSD95/SYN) ([3]; Donepezil 1 μM): mitigated the loss of synapses

CN(C)C(=O)Oc1cc(OC(=O)N(C)C)cc(C(O)CNC(C)(C)C)c1 (stereo not drawn) [bambuterol]
Hyperphosphorylation of Tau (AT100) ([1]; bambuterol all investigated doses (1 nM to 1 μM)): significantly reduced the hyperphosphorylation of Tau | Dose of maximal effect on hyperphosphorylation of Tau ([1]; bell-shape curve): 10 nM | Total neurite network (MAP-2 positive neurons) ([2]; Aβ 20 μM 24 h, all investigated doses of bambuterol (1 nM to 1 μM), FIG. 2B): exerted protective effects on the neurite network | Neurite length per neuron (total neurite network normalized by the number of neurons) ([2]; Aβ 20 μM 24 h, bambuterol 1 nM to 1 μM): did not change this parameter | Neuronal survival (number of MAP-2 positive neurons) ([2]; Aβ 20 μM 24 h, bambuterol highest doses 500 nM and 1 μM, FIG. 2A): did not show any protective effect | Neuronal survival (number of MAP-2 positive neurons) ([2]; Aβ 20 μM 24 h, bambuterol low doses 1 nM to 100 nM, preincubated 1 h, FIG. 2A): significant neuroprotective effects to a similar or higher extent to donepezil | Dose of maximal effect on neurite network ([2]; Aβ 20 μM 24 h, bell-shape curve, FIG. 2B): 10 nM | Dose of maximal effect on neuronal survival ([2]; Aβ 20 μM 24 h, bell-shaped curve, FIG. 2A): 10 nM | Effects of bambuterol compared with Donepezil (summary of the examples) ([2]; bambuterol at a dose of 10 nM, hippocampal neurons injured with Aβ 1-42, overall statement over all readouts): comparable, and even greater, to those of Donepezil | Number of synapses (overlapping PSD95/SYN) ([3]; bambuterol from 10 nM to 100 nM): able to preserve the number of synapses
